# Reference: patent US10488417B2, “Compounds for use as imaging agents” (United Arab Emirates University, priority 2014, dated 2019)
# Biological target: T1, monomeric α-synuclein (Homo sapiens, UniProt P37840)
# T1 construct: made in house
# Experiment: NMR titration into monomeric α-synuclein
# Assay type: binding
# Settings: stoichiometries of up to 6:1 compound: α-synuclein, 100 μM α-synuclein
# Experimental: For NMR studies, recombinant ^15N-labeled α-synuclein was expressed and purified as previously described, resuspended in PBS buffer at pH 6.6. Two-dimensional ^1H-^15N HQSC spectra were acquired for α-synuclein at 100 μM concentration in the absence of Gn Rb1 and in the presence of increasing Gn Rb1: α-synuclein stoichiometries of 1:1, 4:1 and 6:1. Data were collected on a Bruker 900 MHz spectrometer equipped with a cold probe.
compound,measurement,value
"CC(C)=CCC[C@](C)(O[C@@H]1O[C@H](CO[C@@H]2O[C@H](CO)[C@@H](O)[C@H](O)[C@H]2O)[C@@H](O)[C@H](O)[C@H]1O)[C@H]1CC[C@]2(C)[C@@H]1[C@H](O)C[C@@H]1[C@@]3(C)CC[C@H](O[C@@H]4O[C@H](CO)[C@@H](O)[C@H](O)[C@H]4O[C@@H]4O[C@H](CO)[C@@H](O)[C@H](O)[C@H]4O)C(C)(C)[C@@H]3CC[C@]12C [Gn Rb1, ginsenoside Rb1]",interaction with monomeric α-synuclein (two-dimensional NMR),does not interact significantly with monomeric α-synuclein
